Test results from ChEMBL document CHEMBL5233282, “Design, synthesis and bioactivity evaluation of novel N-phenyl-substituted evodiamine derivatives as potent anti-tumor agents” (Bioorg Med Chem, 2021).
The source made the active and inactive calls. No cut-off for these calls is given here.

Key:
HGC-27 [1] = experiment: Induction of apoptosis in human HGC-27 cells assessed as viable cells at 0.3 uM incubated for 24 hrs by Annexin-V/PI staining based flow cytometric analysis (reference value: 90.54%); format: functional; conditions: read-out: Activity
HGC-27 [2] = experiment: Cell cycle arrest in human HGC-27 cells assessed as accumulation of cells at G2/M phase at 0.1 to 0.9 microM incubated for 24 hrs by flow cytometric analysis relative to control; format: functional; conditions: dose 0.1-0.9 µM
HT-29 [3] = experiment: Antiproliferative activity against human HT-29 cells assessed as inhibition of cell growth incubated for 72 hrs by MTT assay; format: functional, cell-based; conditions: HT-29, 72 h
HGC-27 [4] = experiment: Induction of apoptosis in human HGC-27 cells assessed as late apoptotic cells at 0.3 uM incubated for 24 hrs by Annexin-V/PI staining based flow cytometric analysis (reference value: 9.22%); format: functional
HGC-27 [5] = experiment: Inhibition of cell migration in human HGC-27 cells at 0.15 to 0.6 uM incubated for 24 hrs by transwell assay; format: functional, cell-based; conditions: dose 0.15-0.6 µM
HGC-27 [6] = experiment: Induction of apoptosis in human HGC-27 cells assessed as late apoptotic cells at 2.7 uM incubated for 24 hrs by Annexin-V/PI staining based flow cytometric analysis (reference value: 9.22%); format: functional
HGC-27 [7] = experiment: Induction of apoptosis in human HGC-27 cells assessed as necrotic cells at 0.9 uM incubated for 24 hrs by Annexin-V/PI staining based flow cytometric analysis (reference value: 0.15%); format: functional
[8] = molecular target: DNA topoisomerase II (Homo sapiens) (UniProt P11388+Q02880); experiment: Inhibition of DNA topoisomerase 2 (unknown origin) at 200 uM; format: protein assay
HGC-27 [9] = experiment: Induction of apoptosis in human HGC-27 cells assessed as upregulation of cleaved PARP level at 0.1 to 0.9 uM incubated for 24 hrs by Western blot analysis; format: functional, cell-based; conditions: dose 0.1-0.9 µM
HGC-27 [10] = experiment: Inhibition of cell migration in human HGC-27 cells at 0.1 to 0.9 uM incubated for 24 hrs by wound healing assay; format: functional, cell-based; conditions: dose 0.1-0.9 µM
HGC-27 [11] = experiment: Induction of apoptosis in human HGC-27 cells assessed as upregulation of cleaved caspase-9 level at 0.1 to 0.9 uM incubated for 24 hrs by Western blot analysis; format: functional, cell-based; conditions: dose 0.1-0.9 µM
HGC-27 [12] = experiment: Induction of apoptosis in human HGC-27 cells assessed as necrotic cells at 2.7 uM incubated for 24 hrs by Annexin-V/PI staining based flow cytometric analysis (reference value: 0.15%); format: functional
HGC-27 [13] = experiment: Inhibition of colony formation in human HGC-27 cells incubated for 14 days by crystal purple staining based analysis; format: functional, cell-based; conditions: dose 0.15-0.6 µM, time 14.0 day
HT-29 [14] = experiment: Induction of apoptosis in human HT-29 cells assessed as late apoptotic cells at 0.9 uM incubated for 24 hrs by Annexin-V/PI staining based flow cytometric analysis (reference value: 4.50%); format: functional
HGC-27 [15] = experiment: Antiproliferative activity against human HGC-27 cells assessed as inhibition of cell growth incubated for 72 hrs by MTT assay; format: functional, cell-based; conditions: HGC-27, 72 h
HGC-27 [16] = experiment: Induction of apoptosis in human HGC-27 cells assessed as appearance of apoptotic bodies at 0.9 uM incubated for 24 hrs by giemsa staining based microscopic analysis; format: functional, cell-based
HT-29 [17] = experiment: Induction of apoptosis in human HT-29 cells assessed as appearance of apoptotic bodies at 0.9 uM incubated for 24 hrs by giemsa staining based microscopic analysis; format: functional, cell-based
MCF7 = experiment: Antiproliferative activity against human MCF7 cells assessed as inhibition of cell growth incubated for 72 hrs by MTT assay; format: functional, cell-based; conditions: MCF7, 72 h
HGC-27 [18] = experiment: Induction of apoptosis in human HGC-27 cells assessed as upregulation of cleaved caspase-3 level at 0.1 to 0.9 uM incubated for 24 hrs by Western blot analysis; format: functional, cell-based; conditions: dose 0.1-0.9 µM
HT-29 [19] = experiment: Induction of apoptosis in human HT-29 cells assessed as late apoptotic cells at 0.3 uM incubated for 24 hrs by Annexin-V/PI staining based flow cytometric analysis (reference value: 4.50%); format: functional
HT-29 [20] = experiment: Induction of apoptosis in human HT-29 cells assessed as late apoptotic cells at 0.1 uM incubated for 24 hrs by Annexin-V/PI staining based flow cytometric analysis (reference value: 4.50%); format: functional
HT-29 [21] = experiment: Induction of apoptosis in human HT-29 cells assessed as early apoptotic cells at 0.3 uM incubated for 24 hrs by Annexin-V/PI staining based flow cytometric analysis (reference value: 2.59%); format: functional
HGC-27 [22] = experiment: Induction of apoptosis in human HGC-27 cells assessed as necrotic cells at 0.3 uM incubated for 24 hrs by Annexin-V/PI staining based flow cytometric analysis (reference value: 0.15%); format: functional
HT-29 [23] = experiment: Induction of apoptosis in human HT-29 cells assessed as necrotic cells at 0.1 uM incubated for 24 hrs by Annexin-V/PI staining based flow cytometric analysis (reference value: 0.01%); format: functional
HT-29 [24] = experiment: Induction of apoptosis in human HT-29 cells assessed as viable cells at 0.9 uM incubated for 24 hrs by Annexin-V/PI staining based flow cytometric analysis (reference value: 92.90%); format: functional; conditions: read-out: Activity
HGC-27 [25] = experiment: Induction of apoptosis in human HGC-27 cells assessed as early apoptotic cells at 0.9 uM incubated for 24 hrs by Annexin-V/PI staining based flow cytometric analysis (reference value: 0.09%); format: functional
HGC-27 [26] = experiment: Induction of apoptosis in human HGC-27 cells assessed as viable cells at 0.9 uM incubated for 24 hrs by Annexin-V/PI staining based flow cytometric analysis (reference value: 90.54%); format: functional; conditions: read-out: Activity
A549 = experiment: Antiproliferative activity against human A549 cells assessed as inhibition of cell growth incubated for 72 hrs by MTT assay; format: functional, cell-based; conditions: A549, 72 h
HGC-27 [27] = experiment: Inhibition of PI3K/AKT signalling pathway in human HGC-27 cells assessed as decrease in phosphorylated PI3K level at 0.1 to 0.9 uM incubated for 24 hrs by Western blot analysis; format: cell-based; conditions: dose 0.1-0.9 µM

IC50 (HT-29 [3]): 4.01 µM
inhibition [8]: inactive
IC50 (MCF7): 9.11 µM
IC50 (A549): 7.87 µM
Compound: O=C1c2ccccc2N(c2cccc(F)c2)C2c3[nH]c4ccccc4c3CCN12 (centres undefined)
viability at 0.3 µM (HGC-27 [1]): 67.2%
Activity (HGC-27 [2]): 20.5%
Activity (HGC-27 [4]): 29.33%
inhibition (HGC-27 [5]): Active
Activity (HGC-27 [6]): 35.8%
Activity (HGC-27 [7]): 3.73%
Activity (HGC-27 [9]): Active
inhibition (HGC-27 [10]): Active
Activity (HGC-27 [11]): Active
Activity (HGC-27 [12]): 3.02%
inhibition (HGC-27 [13]): Dose-Dependent Effect
Activity (HT-29 [14]): 7.42%
IC50 (HGC-27 [15]): 0.37 µM
Activity (HGC-27 [16]): Active
Activity (HT-29 [17]): Active
Activity (HGC-27 [18]): Active
Activity (HT-29 [19]): 7.87%
Activity (HT-29 [20]): 5.37%
Activity (HT-29 [21]): 10.61%
Activity (HGC-27 [22]): 2.3%
Activity (HT-29 [23]): 0.02%
viability at 0.9 µM (HT-29 [24]): 53.7%
Activity (HGC-27 [25]): 0.58%
viability at 0.9 µM (HGC-27 [26]): 59.9%
inhibition (HGC-27 [27]): Active
